# Results reported in patent US10051861B2, “N-arylamidine-substituted trifluoroethyl sulfide derivatives as acaricides and insecticides” (BAYER CROPSCIENCE AG, priority 2011, dated 2018).
# Like-named read-outs stand apart in the source and are kept apart here. Marks after values point to notes of the source that are not given here.
# Tests used:
# [1] = logP by HPLC on reversed-phase columns (C 18), EEC Directive 79/831 Annex V.A8; type: physicochemical; details: for logP(HCOOH): pH 2.7; for logP(neutral): pH 7.8; for chromatographic logP: reversed-phase C18 HPLC column
# Experimental: Calibration is carried out using unbranched alkan-2-ones (having from 3 to 16 carbon atoms) with known log P values (the log P values are determined by the retention times using linear interpolation between two successive alkanones).
# Boophilus microplus = Boophilus microplus test (BOOPMI injection); type: in vivo; parameters: dose or concentration left out as unconfirmed; details: after 7 days
# Experimental: (§1) Solvent: dimethyl sulfoxide
# The solution of active compound is injected into the abdomen (Boophilus microplus), and the animals are transferred into dishes and kept in a climatized room. The activity is assessed by laying of fertile eggs.
# 100% means that none of the ticks has laid any fertile eggs.
# [2] = test system: cattle ticks (Boophilus microplus); assay: Boophilus microplus injection test (BOOPMI Inj); type: in vivo; details: application rate 20 μg/animal, injection, after 7 days; for pest or weed control at 0.02 mg: Rhipicephalus microplus, 168 h, read-out: efficacy (laying of fertile eggs)
# Experimental: as §1
# 1 μl of the active compound solution is injected into the abdomen of 5 engorged adult female cattle ticks (Boophilus microplus). The animals are transferred into dishes and kept in a climate-controlled room.
# The activity is assessed after 7 days by laying of fertile eggs. Eggs whose fertility is not visible from the outside are stored in a climate-controlled cabinet until the larvae hatch after about 42 days. An efficacy of 100% means that none of the ticks has laid any fertile eggs; 0% means that all eggs are fertile.
# [3] = test system: greenhouse red spider mite (Tetranychus urticae); assay: Tetranychus urticae spray test, OP-resistant (TETRUR), bean leaf disks; type: in vivo; details: application rate 500 g/ha, after 6 days; for pest or weed control at 500 g/ha: Tetranychus urticae, foliar, 144 h, read-out: efficacy (spider mites killed)
# Experimental: (§2) After 6 days, the effect in % is determined.
# [4] = test system: larvae of the mustard beetle (Phaedon cochleariae); assay: Phaedon test (PHAECO spray treatment); details: application rate 500 g/ha, after 7 days
# [5] = test system: larvae of the mustard beetle (Phaedon cochleariae); assay: Phaedon cochleariae spray test (PHAECO); details: application rate 500 g/ha, after 7 days
# [6] = test system: greenhouse red spider mite (Tetranychus urticae); assay: Tetranychus test, OP-resistant (TETRUR spray treatment); type: in vivo; details: application rate 500 g/ha, after 6 days
# Experimental: as §2
# [7] = test system: green peach aphid (Myzus persicae); assay: Myzus persicae spray test (MYZUPE); type: in vivo; details: after 6 days
# Experimental: as §2
# [8] = test system: L1 larvae of the Australian sheep blowfly (Lucilia cuprina); assay: Lucilia cuprina test (LUCICU); type: in vivo; details: application rate 100 ppm, after 2 days
# Experimental: as §1
# About 20 L1 larvae of the Australian sheep blowfly (Lucilia cuprina) are transferred into a test vessel containing minced horsemeat and the active compound preparation of the desired concentration.
# After 2 days, the kill in % is determined.
# [9] = pH 2.7, [a] LC-MS, acidic range, pH 2.7, 0.1% aqueous formic acid/acetonitrile, read-out: logP(HCOOH)
SMILES,logP(HCOOH) [1],logP(neutral) [1],efficacy (laying of fertile eggs) [2],efficacy (spider mites killed) [3],efficacy (beetle larvae killed) [4],effect (beetle larvae killed) [5],efficacy (spider mites killed) [6],pest or weed control at 500 g/ha [3],further results
CN/C(=N/c1ccc(C(F)(F)F)c([S+]([O-])CC(F)(F)F)c1)C(F)(F)F (stereo not shown) [Ib-10],2.52,2.49,100%,100%,100%,100%,,,efficacy (laying of fertile eggs) (Boophilus microplus): 100%
Cc1cc(C)c([S+]([O-])CC(F)(F)F)cc1/N=C(/N)C(F)(F)F (stereo not shown) [Ib-12],3.36,3.3,100%,100%,,,100%,,
Cc1cc(F)c(N=C(NCc2ccccn2)C(F)(F)F)cc1SCC(F)(F)F [Ia-04],3.68^[a],,80%,100%,100%,100%,,,efficacy (laying of fertile eggs) (Boophilus microplus): 80%
CNC(=Nc1cc(SCC(F)(F)F)c(Cl)cc1Cl)C(F)(F)F [Ia-15],4.2^[a]; 4.2^[b],4.2^[a]; 4.2^[b],,100%,100%,100%,100%,,
"Cc1cc(F)c(/N=C(/N(C)C)C(F)(F)F)cc1[S+]([O-])CC(F)(F)F (stereo not shown) [Ib-01, 2,2,2-Trifluoro-N′-{2-fluoro-4-methyl-5-[(2,2,2-trifluoroethyl)sulfinyl]phenyl}-N,N-dimethylethanimidamide]",,,,,,,,90%,"chromatographic logP [1, 9]: 3.15; efficacy (laying of fertile eggs) (Boophilus microplus): 100%; pest or weed control at 0.02 mg [2]: 100%"
CNC(=Nc1ccc(C(F)(F)F)c(SCC(F)(F)F)c1)C(F)(F)F [Ia-19],,,,100%,100%,100%,,,
Cc1cc(C)c(SCC(F)(F)F)cc1/N=C(\N)C1(Cl)CC1 [Ia-34],,,,,,,,100%,pest or weed control at 0.02 mg [2]: 100%; effect (aphids killed) ([7]; application rate 500 g/ha): 90%
"Cc1cc(F)c(/N=C(/N(C)C)C(F)(F)F)cc1SCC(F)(F)F [Ia-01, 2,2,2-Trifluoro-N′-{2-fluoro-4-methyl-5-[(2,2,2-trifluoroethyl)sulfanyl]phenyl}-N,N-dimethylethanimidamide]",,,,,,,,100%,"chromatographic logP [1, 9]: 4.48; chromatographic logP ([1]; pH 7.8, [b] LC-MS, neutral range, pH 7.8, 0.001 molar aqueous ammonium bicarbonate/acetonitrile, read-out: logP(neutral)): 4.5; efficacy (laying of fertile eggs) (Boophilus microplus): 100%; pest or weed control at 0.02 mg [2]: 100%"
Cc1cc(F)c(/N=C(\NC(C)C(F)(F)F)C2CC2)cc1SCC(F)(F)F (stereo not shown) [Ia-206],,,,,,,,100%,pest or weed control at 0.02 mg [2]: 100%; effect (aphids killed) ([7]; application rate 500 g/ha): 100%
N/C(=N/c1cc([S+]([O-])CC(F)(F)F)c(Cl)cc1Cl)C(F)(F)F (stereo not shown) [Ib-14],2.05,2.02,100%,100%,100%,100%,,,efficacy (laying of fertile eggs) (Boophilus microplus): 100%
Cc1cc(F)c(N=C(NC(C)C)C(F)(F)F)cc1SCC(F)(F)F [Ia-05],4.51,4.52,,100%,100%,100%,100%,,
NC(=Nc1cc(SCC(F)(F)F)c(Cl)cc1Cl)C(F)(F)F [Ia-14],,,,100%,100%,100%,,,
N/C(=N/c1ccc(C(F)(F)F)c([S+]([O-])CC(F)(F)F)c1)C(F)(F)F (stereo not shown) [Ib-16],2.2,2.19,100%,100%,100%,100%,,,efficacy (laying of fertile eggs) (Boophilus microplus): 100%
CN(C)/C(=N\c1cc([S+]([O-])CC(F)(F)F)c(Cl)cc1Cl)c1cccnc1 (stereo not shown) [Ib-123],,,,,,,,100%,effect (aphids killed) ([7]; application rate 500 g/ha): 90%
Cc1cc(F)c(N=C(NC(C)C)C(F)(F)F)cc1[S+]([O-])CC(F)(F)F (stereo not shown) [Ib-03],,,100%,100%,,,100%,,
CCNC(=Nc1cc(SCC(F)(F)F)c(C)cc1F)C(F)(F)F [Ia-18],4.12^[a]; 4.12^[b],4.12^[a]; 4.12^[b],,100%,100%,100%,100%,,
Cc1cc(F)c(/N=C(\NCC2CCCC(C(F)(F)F)C2)C2CC2)cc1SCC(F)(F)F (stereo not shown) [Ia-228],,,,,,,,90%,effect (aphids killed) ([7]; application rate 500 g/ha): 100%
CCCNC(=Nc1cc(SCC(F)(F)F)c(C)cc1F)C(F)(F)F [Ia-02],4.45,4.43,,100%,100%,100%,100%,,
CNC(=Nc1cc(SCC(F)(F)F)c(C)cc1F)C(F)(F)F [Ia-13],3.7,3.71,100%,100%,100%,100%,100%,,efficacy (kill of larvae) [8]: 90%
Cc1cc(F)c(/N=C(/N)c2ccc(F)cc2)cc1SCC(F)(F)F [Ia-116],,,,,,,,100%,pest or weed control at 0.02 mg [2]: 100%; effect (aphids killed) ([7]; application rate 500 g/ha): 90%
Cc1cc(F)c(/N=C(\N)C(F)(F)C(F)(F)F)cc1[S+]([O-])CC(F)(F)F (stereo not shown) [Ib-42],,,,,,,,100%,effect (aphids killed) ([7]; application rate 100 g/ha): 80%
Cc1cc(F)c(N=C(N)C(F)(F)C(F)(F)C(F)(F)C(F)(F)C(F)(F)C(F)F)cc1SCC(F)(F)F [Ia-22],,,100%,100%,,,,,efficacy (laying of fertile eggs) (Boophilus microplus): 100%
Cc1cc(F)c(N=C(NC2CC2)C(F)(F)F)cc1SCC(F)(F)F [Ia-26],4.03,4.02,,100%,,,100%,,
CNC(=Nc1cc([S+]([O-])CC(F)(F)F)c(C)cc1F)C(F)(F)F (stereo not shown) [Ib-07],2.64,2.61,100%,100%,,,100%,,
